What was measured:
[1] = system: souris mâles de souche swiss; test: Rotating rod test (Rota-Rod); type: in vivo; settings: Mus musculus, po, male Swiss mice, 10 per dose, effective if the mouse falls off the rod in less than two minutes, read-out: Rota-Rod v. o. DE50
Text: On réalise cet essai sur des souris mâles de souche swiss. On place la souris sur une tige de bois d'un diamètre de 3 crn, tournant à raison de cinq tours par minute. On choisit les souris qui peuvent rester sur la tige pendant au moins trois minutes au cours d'essais successifs et on les rassemble par groupe de dix pour l'essai de chaque dose.
Si la souris tombe de la tige en moins de deux minutes, on considère le composé essayé comme efficace.
Les résultats sont exprimés en DE50 selon: N. W. Dunham et T. S. Miva (J. Amer. Pharm. Asso., 1957, 46,208).

[2] = system: souris mâles de souche swiss; test: Pentetrazol antagonism (protection against tonic convulsions); type: in vivo; settings: Mus musculus, po, 60 min before 125 mg/kg s.c. pentetrazol, male Swiss mice, observed for two hours, read-out: Pentétrazol v. o. DE50
Description: Ce test est réalisé sur un groupe de dix souris mâles de souche Swiss. Dans un délai de quinze minutes après l'injection sous-cutanée de 125 mg/kg de pentétrazol, les souris ont des convulsions toniques dont l'issue est fatale. Pour l'essai, on administre par voie orale les composés soixante minutes avant l'injection de pentétrazol. Les animaux sont observes pendant deux heures après administration du pentétrazol.
Les résultats sont exprimés par la dose efficace DE50 selon Goodmann et Coll. (J. Pharmacol. 108, 1953).

[3] = Oral toxicity, lethal dose 50 (Miller and Tainter method); settings: in vivo, lethal dose 50 calculated by the Miller and Tainter method, read-out: Toxicité v. o. DE50
Text: Les composés les plus actifs de la présente invention ont été soumis à des contrôles de toxicité.
La dose létale 50 et les activités pharmacologiques sont rapportées dans le Tableau (I).
La dose létale a été recherchée par voie orale et calculée selon la méthode de Miller et Tainter (Proc. Soc. Exper. Biol. Med., 1944,57,261).

SMILES	ED50 [1]	ED50 [2]	LD50 [3]
CN(C(=O)CNC1CCCCC1)c1ccc(C(F)(F)F)cc1C(=O)c1ccccc1 [Exemple 12, N-méthyl N'-cyclohexyl (benzoyf-2' trifluorométhyl-4') glycylanilide]	8 mg/kg	1 mg/kg	> 1000 mg/kg
CN(C(=O)CNC1CCCCC1)c1ccc(C#N)cc1C(=O)c1ccccc1 [Exemple 13, Chlorhydrate de N-méthyl N'-cyclohexyl (benzoyl-2' cyano-4') glycylanilide]	7 mg/kg	0.9 mg/kg	> 1000 mg/kg
CN(C(=O)CNC1CCCCC1)c1ccc(Br)cc1C(=O)c1ccccc1 [Br]	22 mg/kg	–	> 1000 mg/kg
